Source: article PMC10350924, “Design, Synthesis, and Pharmacological Characterization of a Potent Soluble Epoxide Hydrolase Inhibitor for the Treatment of Acute Pancreatitis” (Journal of Medicinal Chemistry, 2023)

Tests used:
sEH = conditions: cited from earlier work
[1] = test system: cerulein-induced acute pancreatitis; assay: Cerulein-induced acute pancreatitis in mice; assay type: in vivo; conditions: 10 mg/kg i.p. 0.5 and 2.5 h after first cerulein injection; 6 h
Method: Male CD-1 mice (33–39 g, 8 weeks, Charles River Laboratories; Calco, Italy) were fed with standard rodent chow and water and acclimated for 4 days at a 12 h light and 12 h dark schedule in a constant air-conditioned environment (21 ± 2 °C). The mice were randomly assigned to groups, and experiments were carried out during the light phase. Experimental procedures were conducted in conformity with Italian (D.L. 26/2014) and European (directive 2010/63/EU) regulations on the protection of animals used for scientific purposes and approved by the Italian Ministry. Acute pancreatitis (AP) was induced in mice by intraperitoneal (i.p.) injections of cerulein (50 μg/kg) hourly (5 times).[56] The groups were: (a) Sham group which received saline i.p. hourly (×5); […] The mice were killed 6 h after the first cerulein injection. Blood samples were obtained by direct intracardiac puncture. Pancreases and lungs were removed immediately, frozen, and stored at −80 °C until assayed. Portions of these organs were also fixed in formaldehyde for histological and immunohistochemical examination. Pancreas and lung sections (6 μm) were stained for hematoxylin & eosin (H&E). Evaluation of pancreas edema and inflammation signs were performed with a three-point scoring system. […] Analysis was performed in a blinded manner. Evaluation of lung edema and inflammatory infiltration was performed with three-point scoring system: 0, absent; 1, mild; 2, moderate; 3, severe. […] Tissue sections were then incubated with normal goat serum (Vector Laboratories, Newark, California) for 20 min to reduce nonspecific antibody interactions. Sections were incubated with primary antibody diluted in 0.01 M PBS, 2.5% normal serum (anti-Neutrophils rat monoclonal antibody, dilution 1:100, Abcam) for 30 min. After rinsing with PBS 0.01 M for 5 min, slides were incubated with biotinylated goat anti-rat IgG (Vector Laboratories, Newark, California), diluted 1:200, for 30 min. After rinsing with PBS 0.01 M for 5 min, slides were incubated with VECTASTAIN ABC Reagent (Vector Laboratories, Newark, California) for 30 min. Color development was performed using […] 3,3′-diaminobenzidine solution (Sigma-Aldrich, Milan, Italy), and sections were analyzed using Leica Microsystem with a magnification of 20x. Semiquantitative determination of protein expression was obtained with ImageJ/Fiji software. Liver injury was assessed by measuring the rise in plasma levels of alanine aminotransferase (ALT, a specific marker for hepatic parenchymal injury) and aspartate aminotransferase (AST, a nonspecific marker for hepatic injury) 6 h after cerulein injection by a clinical laboratory. Results are expressed in international units per milliliter.

| SMILES | sEH inhibitory potency in words (Figure 1) (sEH) | pancreatic injury (edema, cell infiltration, neutrophil numbers) [1] |
| --- | --- | --- |
| O=C(Nc1ccc2c(c1)CCN2Cc1ccc(F)cc1)NC1CCCCC1 [Compound 53] | high sEH inhibitory potency |  |
| O=C(O)CCCCCCCCCCCNC(=O)NC12CC3CC(CC(C3)C1)C2 [AUDA, reference compound] |  | reduced pancreatic injury |
